Calls of active or inactive are those of the source. For most assays here, no stated cut-off is given here; in the data, actives have a measured EC50 and inactives only a lower limit.
Key:
[1] = molecular target: T1, Ubiquitin-conjugating enzyme E2 N (Homo sapiens, UniProt P61088); format: functional;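 further: Dose-response confirmation in a TR-FRET assay detecting UBC13-driven polyubiquitin chain formation, inhibition measured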
T1 sequence (P61088 whole entry): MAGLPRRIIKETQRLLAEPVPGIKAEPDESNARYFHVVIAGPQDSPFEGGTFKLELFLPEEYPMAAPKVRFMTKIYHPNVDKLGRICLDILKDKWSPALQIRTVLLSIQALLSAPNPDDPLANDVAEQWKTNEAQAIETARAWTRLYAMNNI

Bcl-2-related protein A1 = molecular target: T2, Bcl-2-related protein A1 (Mus musculus, UniProt Q07440); format: functional;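 further: confirmatory dose–response counterscreen on Bfl-1, used to check hits from a UBC13 polyubiquitin inhibitor campaign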
T2 sequence (Q07440 whole entry): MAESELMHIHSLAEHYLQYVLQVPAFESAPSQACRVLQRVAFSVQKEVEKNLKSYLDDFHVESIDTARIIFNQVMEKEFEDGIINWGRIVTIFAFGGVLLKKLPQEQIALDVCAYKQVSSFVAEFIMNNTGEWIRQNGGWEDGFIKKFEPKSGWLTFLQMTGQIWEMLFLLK

Streptokinase A = molecular target: T3, Streptokinase A (Streptococcus pyogenes serotype M1, UniProt P10520); assay: S. pyogenes streptokinase expression inhibitors, potency, dose response, plasminogen activation absorbance, OD405 (AID 1914); format: functional, Streptococcus pyogenes M1 GAS;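 further: secreted streptokinase activity via plasminogen activation per viability signal from cell pellet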
T3 sequence (P10520 whole entry): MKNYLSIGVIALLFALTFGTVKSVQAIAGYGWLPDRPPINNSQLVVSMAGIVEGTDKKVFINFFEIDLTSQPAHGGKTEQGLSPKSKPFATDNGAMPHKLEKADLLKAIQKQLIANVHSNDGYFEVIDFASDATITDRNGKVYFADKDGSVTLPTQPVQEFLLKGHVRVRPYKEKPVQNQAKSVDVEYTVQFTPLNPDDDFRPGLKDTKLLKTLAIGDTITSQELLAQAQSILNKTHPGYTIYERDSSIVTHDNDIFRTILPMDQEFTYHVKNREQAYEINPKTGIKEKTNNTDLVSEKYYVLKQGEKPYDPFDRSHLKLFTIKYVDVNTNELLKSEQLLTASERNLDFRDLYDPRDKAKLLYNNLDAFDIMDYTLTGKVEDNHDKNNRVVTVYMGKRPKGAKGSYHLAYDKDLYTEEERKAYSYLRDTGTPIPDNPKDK

[2] = molecular target: T4, Replicative DNA helicase DnaB (Mycobacterium tuberculosis, UniProt P9WMR3); assay: DnaB intein splicing inhibitors, dose response, biochemical, cell-free fluorescence (AID 449749); format: functional
T4 sequence (P9WMR3 whole entry): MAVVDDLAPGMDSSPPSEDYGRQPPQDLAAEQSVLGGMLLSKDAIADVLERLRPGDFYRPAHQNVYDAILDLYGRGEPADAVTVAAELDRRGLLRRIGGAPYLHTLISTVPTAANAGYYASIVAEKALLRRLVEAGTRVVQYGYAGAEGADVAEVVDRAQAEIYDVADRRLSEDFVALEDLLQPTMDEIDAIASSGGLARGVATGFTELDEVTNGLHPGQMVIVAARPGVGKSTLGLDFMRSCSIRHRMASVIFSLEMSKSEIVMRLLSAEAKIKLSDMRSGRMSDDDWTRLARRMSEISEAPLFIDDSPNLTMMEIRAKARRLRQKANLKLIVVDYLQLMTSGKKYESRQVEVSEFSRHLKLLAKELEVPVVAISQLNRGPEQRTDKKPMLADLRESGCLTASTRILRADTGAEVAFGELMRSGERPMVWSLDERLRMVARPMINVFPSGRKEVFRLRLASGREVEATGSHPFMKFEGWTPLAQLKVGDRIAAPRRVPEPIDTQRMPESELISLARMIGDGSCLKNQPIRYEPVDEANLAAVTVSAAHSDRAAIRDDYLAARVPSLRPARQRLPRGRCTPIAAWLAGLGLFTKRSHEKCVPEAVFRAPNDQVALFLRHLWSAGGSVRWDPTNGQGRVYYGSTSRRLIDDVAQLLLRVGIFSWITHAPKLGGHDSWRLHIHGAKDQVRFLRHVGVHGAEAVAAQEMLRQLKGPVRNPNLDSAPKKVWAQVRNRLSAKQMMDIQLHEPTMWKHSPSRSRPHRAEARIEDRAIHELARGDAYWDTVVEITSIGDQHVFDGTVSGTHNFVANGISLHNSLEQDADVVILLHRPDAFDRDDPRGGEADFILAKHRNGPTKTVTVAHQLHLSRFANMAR

Protein RecA = molecular target: T5, Protein RecA (Mycobacterium tuberculosis, UniProt P9WHJ3); assay: Fluorescence Cell-Free Homogeneous Dose Retest to Identify Inhibitors of RecA-Intein Splicing Activity. [Related pubchem assays (depositor defined):AID2097, AID2223, AID489010, AID492950]; format: functional
T5 sequence (P9WHJ3 whole entry): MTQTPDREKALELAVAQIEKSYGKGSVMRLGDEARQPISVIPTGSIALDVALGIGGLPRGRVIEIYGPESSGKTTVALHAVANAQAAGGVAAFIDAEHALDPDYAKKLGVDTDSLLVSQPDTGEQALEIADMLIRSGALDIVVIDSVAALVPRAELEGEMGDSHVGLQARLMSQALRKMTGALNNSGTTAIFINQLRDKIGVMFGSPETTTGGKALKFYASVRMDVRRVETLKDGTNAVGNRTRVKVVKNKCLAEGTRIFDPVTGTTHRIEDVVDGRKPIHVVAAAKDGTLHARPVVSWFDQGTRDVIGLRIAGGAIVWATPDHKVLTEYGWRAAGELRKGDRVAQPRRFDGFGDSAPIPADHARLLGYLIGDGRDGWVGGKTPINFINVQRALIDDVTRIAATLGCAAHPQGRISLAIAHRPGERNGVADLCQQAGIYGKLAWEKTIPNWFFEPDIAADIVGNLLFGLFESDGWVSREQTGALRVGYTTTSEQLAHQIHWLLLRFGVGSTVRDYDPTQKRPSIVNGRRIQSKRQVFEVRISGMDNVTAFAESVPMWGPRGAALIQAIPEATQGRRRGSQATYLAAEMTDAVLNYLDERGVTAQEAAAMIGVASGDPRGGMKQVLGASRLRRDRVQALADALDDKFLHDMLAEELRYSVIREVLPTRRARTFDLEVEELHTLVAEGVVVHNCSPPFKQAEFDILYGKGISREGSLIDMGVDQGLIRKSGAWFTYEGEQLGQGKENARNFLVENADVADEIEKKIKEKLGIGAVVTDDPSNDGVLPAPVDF

[3] = tested on: Streptococcus sp. 'group A'; assay: growth inhibition of control SK(-) GAS strain, dose response, counter-screen for streptokinase expression inhibitor project, luminescence, kanamycin, BacTiterGlo, confirmation (AID 1900); format: functional, organism-based
Streptococcus = assay: Group A Streptococcus viability loss, dose response, counter-screen for streptokinase expression inhibitor project, luminescence, BacTiterGlo (AID 1915); format: functional, organism-based;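 further: potency for reduction of bacterial viability or growth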

Which IC50 [1] does the source give for `COc1cc(/C=C/c2cc[n+](C)cc2)ccc1OCC(=O)Nc1ccc(Cl)c(Cl)c1` here?
The IC50 was 7.13 µM (active).

And the IC50 (Bcl-2-related protein A1)?
The IC50 was > 20 µM (inactive).

What about the EC50 (Streptokinase A) of the same compound?
The EC50 was > 150 µM (not active).

What about the AC50 [2] of the same compound?
Its AC50 is > 380 µM (inactive).

And the EC50 (Protein RecA)?
Its EC50 is 17.2 µM (active).

What about the EC50 [3] of the same compound?
The EC50 was 12.7 µM (active).

And the EC50 (Streptococcus)?
Its EC50 is 12.9 µM (active).

How did the IC50 [1] turn out when `CCCCCCCCCC[N+](C)(C)CC/C=C1/c2ccccc2Sc2ccc(Cl)cc21` was run?
The IC50 was 4.61 µM (active).

What about the IC50 (Bcl-2-related protein A1) of the same compound?
Its IC50 is 8.08 µM (active).

And the EC50 (Streptokinase A)?
The EC50 was 6.63 µM (active).

And the AC50 [2]?
The AC50 was > 380 µM (inconclusive).

What about the EC50 (Protein RecA) of the same compound?
Its EC50 is 5.8 µM (active).

What about the EC50 [3] of the same compound?
Its EC50 is 1.75 µM (active).

And the EC50 (Streptococcus)?
Its EC50 is 5.62 µM (active).

Which results are given for `O=C(NCCc1ccccc1)C(c1cccs1)N(C(=O)CCl)c1ccc(Cl)cc1` (stereo unspecified)?
AC50 [2]: 1.49 µM (active); EC50 (Protein RecA): 0.233 µM (active)

Reference: ChEMBL document CHEMBL1201862, “PubChem BioAssay data set” (2004)
